Patent US20130259835A1, “BIFIDOBACTERIUM ADOLESCENTIS SPM0212 HAVING ANTIVIRAL ACTIVITY FOR HEPATITIS B VIRUS, AND PHARMACEUTICAL COMPOSITION FOR PREVENTING AND TREATING HEPATITIS B COMPRISING THEREOF” (SAHMYOOK UNIVERSITY INDUSTRY-ACADEMIC COOPERATION, priority 2011, published 2013)
Blank lines part the entries; values can stand above or below the compound they belong to.

Legend:
Assay in all cases: Antibiotics sensitivity, agar dilution MIC
Format in all cases: cell-based
[1] = system: Bifidobacterium adolescentis KCTC3352; conditions: strain KCTC3352; Table 5
Method: (§1) Antibiotics sensitivity test was performed for comparative analysis of phenotypes of the lactobacillus strain separated in Example 1 and standard strains purchased from KCTC. In order to find out the minimum inhibitory concentrations (MICs) of 18 kinds of antibiotics (ampicillin, mupirocin, amoxicillin/clavulanic acid, oxacillin, cefonicid, cefazolin, ceftazidime, cefotaxime, ceftriaxone, tigecyclin, streptomycin, vancomycin, teicoplanin, daptomycin, linezolid, clindamycin, quinupristin/dalfopristin and tobramycin), agar dilution method was performed according to the Clinical and Laboratory Standards Institute (CLSI, 2003), and the results were listed in Tables 4 and 5.

[2] = system: Bifidobacterium longum SPM1206; conditions: strain SPM1206; Table 5
Method: as §1

[3] = system: Bifidobacterium adolescentis SPM1606; conditions: strain SPM1606; Table 5
Method: as §1

[4] = system: Bifidobacterium adolescentis SPM0212; conditions: strain SPM0212; Table 5
Method: as §1

[5] = system: Bifidobacterium pseudocatenulatum KCTC3223; conditions: strain KCTC3223; Table 5
Method: as §1

[6] = system: Bifidobacterium adolescentis SPM0214; conditions: strain SPM0214; Table 5
Method: as §1

[7] = system: Bifidobacterium adolescentis SPM1307-A; conditions: strain SPM1307-A; Table 5
Method: as §1

[8] = system: Bifidobacterium adolescentis SPM1604; conditions: strain SPM1604; Table 5
Method: as §1

[9] = system: Bifidobacterium adolescentis SPM1601; conditions: strain SPM1601; Table 5
Method: as §1

[10] = system: Bifidobacterium adolescentis SPM1605; conditions: strain SPM1605; Table 5
Method: as §1

[11] = system: Bifidobacterium adolescentis SPM0308; conditions: strain SPM0308; Table 5
Method: as §1

[12] = system: Bifidobacterium pseudocatenulatum SPM1204; conditions: strain SPM1204; Table 5
Method: as §1

[13] = system: Bifidobacterium adolescentis SPM1005; conditions: strain SPM1005; Table 5
Method: as §1

[14] = system: Bifidobacterium longum KCTC3128; conditions: strain KCTC3128; Table 5
Method: as §1

[15] = system: Bifidobacterium longum SPM1205; conditions: strain SPM1205; Table 5
Method: as §1

[16] = system: Bifidobacterium pseudocatenulatum SPM1309; conditions: strain SPM1309; Table 5
Method: as §1

[17] = system: Bifidobacterium adolescentis SPM1608; conditions: strain SPM1608; Table 5
Method: as §1

Structure (SMILES): CCC[C@@H]1C[C@@H](C(=O)N[C@@H]([C@H]2O[C@H](SC)[C@H](O)[C@@H](O)[C@H]2O)[C@H](C)Cl)N(C)C1 [CLI, clindamycin]
Minimum inhibitory concentrations (MICs) [1]: 4 μl/Ml | Minimum inhibitory concentrations (MICs) [2]: 8 μl/Ml | Minimum inhibitory concentrations (MICs) [3]: 4 μl/Ml | Minimum inhibitory concentrations (MICs) [4]: 4 μl/Ml | Minimum inhibitory concentrations (MICs) [5]: 8 μl/Ml | Minimum inhibitory concentrations (MICs) [6]: 32 μl/Ml | Minimum inhibitory concentrations (MICs) [7]: 4 μl/Ml | Minimum inhibitory concentrations (MICs) [8]: 4 μl/Ml | Minimum inhibitory concentrations (MICs) [9]: 16 μl/Ml | Minimum inhibitory concentrations (MICs) [10]: 4 μl/Ml | Minimum inhibitory concentrations (MICs) [11]: 32 μl/Ml | Minimum inhibitory concentrations (MICs) [12]: >128 μl/Ml | Minimum inhibitory concentrations (MICs) [13]: 32 μl/Ml | Minimum inhibitory concentrations (MICs) [14]: 4 μl/Ml | Minimum inhibitory concentrations (MICs) [15]: 4 μl/Ml | Minimum inhibitory concentrations (MICs) [16]: 8 μl/Ml | Minimum inhibitory concentrations (MICs) [17]: 8 μl/Ml

Structure (SMILES): [H]/N=C(/N)N[C@H]1[C@H](O)[C@@H](O)[C@H](O[C@@H]2O[C@@H](C)[C@](O)(C=O)[C@H]2O[C@@H]2O[C@@H](CO)[C@H](O)[C@@H](O)[C@@H]2NC)[C@@H](N/C(N)=N\[H])[C@@H]1O [STR, streptomycin]
Minimum inhibitory concentrations (MICs) [1]: 128 μl/Ml | Minimum inhibitory concentrations (MICs) [2]: 8 μl/Ml | Minimum inhibitory concentrations (MICs) [3]: 0.25 μl/Ml | Minimum inhibitory concentrations (MICs) [4]: 128 μl/Ml | Minimum inhibitory concentrations (MICs) [5]: 128 μl/Ml | Minimum inhibitory concentrations (MICs) [6]: 32 μl/Ml | Minimum inhibitory concentrations (MICs) [7]: 64 μl/Ml | Minimum inhibitory concentrations (MICs) [8]: ≦0.06 μl/Ml | Minimum inhibitory concentrations (MICs) [9]: 64 μl/Ml | Minimum inhibitory concentrations (MICs) [10]: 32 μl/Ml | Minimum inhibitory concentrations (MICs) [11]: 32 μl/Ml | Minimum inhibitory concentrations (MICs) [12]: 128 μl/Ml | Minimum inhibitory concentrations (MICs) [13]: 32 μl/Ml | Minimum inhibitory concentrations (MICs) [14]: 128 μl/Ml | Minimum inhibitory concentrations (MICs) [15]: 8 μl/Ml | Minimum inhibitory concentrations (MICs) [16]: 32 μl/Ml | Minimum inhibitory concentrations (MICs) [17]: 32 μl/Ml

Structure (SMILES): NC[C@H]1O[C@H](O[C@H]2[C@H](O)[C@@H](O[C@H]3O[C@H](CO)[C@@H](O)[C@H](N)[C@H]3O)[C@H](N)C[C@@H]2N)[C@H](N)C[C@@H]1O [TOB, tobramycin]
Minimum inhibitory concentrations (MICs) [1]: >128 μl/Ml | Minimum inhibitory concentrations (MICs) [2]: 32 μl/Ml | Minimum inhibitory concentrations (MICs) [3]: 16 μl/Ml | Minimum inhibitory concentrations (MICs) [4]: >128 μl/Ml | Minimum inhibitory concentrations (MICs) [5]: >128 μl/Ml | Minimum inhibitory concentrations (MICs) [6]: 32 μl/Ml | Minimum inhibitory concentrations (MICs) [7]: 64 μl/Ml | Minimum inhibitory concentrations (MICs) [8]: 16 μl/Ml | Minimum inhibitory concentrations (MICs) [9]: 32 μl/Ml | Minimum inhibitory concentrations (MICs) [10]: 16 μl/Ml | Minimum inhibitory concentrations (MICs) [11]: 32 μl/Ml | Minimum inhibitory concentrations (MICs) [12]: 128 μl/Ml | Minimum inhibitory concentrations (MICs) [13]: 32 μl/Ml | Minimum inhibitory concentrations (MICs) [14]: >128 μl/Ml | Minimum inhibitory concentrations (MICs) [15]: 4 μl/Ml | Minimum inhibitory concentrations (MICs) [16]: >128 μl/Ml | Minimum inhibitory concentrations (MICs) [17]: 128 μl/Ml

Further lines, results first:

Minimum inhibitory concentrations (MICs) [1]: 16 μl/Ml | Minimum inhibitory concentrations (MICs) [2]: 4 μl/Ml | Minimum inhibitory concentrations (MICs) [3]: 0.12 μl/Ml | Minimum inhibitory concentrations (MICs) [4]: 4 μl/Ml | Minimum inhibitory concentrations (MICs) [5]: 16 μl/Ml | Minimum inhibitory concentrations (MICs) [6]: 2 μl/Ml | Minimum inhibitory concentrations (MICs) [7]: 8 μl/Ml | Minimum inhibitory concentrations (MICs) [8]: 4 μl/Ml | Minimum inhibitory concentrations (MICs) [9]: 4 μl/Ml | Minimum inhibitory concentrations (MICs) [10]: 4 μl/Ml | Minimum inhibitory concentrations (MICs) [11]: 0.25 μl/Ml | Minimum inhibitory concentrations (MICs) [12]: 2 μl/Ml | Minimum inhibitory concentrations (MICs) [13]: 1 μl/Ml | Minimum inhibitory concentrations (MICs) [14]: 16 μl/Ml | Minimum inhibitory concentrations (MICs) [15]: 2 μl/Ml | Minimum inhibitory concentrations (MICs) [16]: 4 μl/Ml | Minimum inhibitory concentrations (MICs) [17]: 8 μl/Ml
Structure (SMILES): CCCCCCCCCC(=O)N[C@@H](Cc1c[nH]c2ccccc12)C(=O)N[C@H](CC(N)=O)C(=O)N[C@@H](CC(=O)O)C(=O)N[C@@H]1C(=O)NCC(=O)N[C@@H](CCCN)C(=O)N[C@@H](CC(=O)O)C(=O)N[C@H](C)C(=O)N[C@@H](CC(=O)O)C(=O)NCC(=O)N[C@H](CO)C(=O)N[C@@H]([C@H](C)CC(=O)O)C(=O)N[C@@H](CC(=O)c2ccccc2N)C(=O)O[C@@H]1C [DAP, daptomycin]

Minimum inhibitory concentrations (MICs) [1]: 8 μl/Ml | Minimum inhibitory concentrations (MICs) [2]: 1 μl/Ml | Minimum inhibitory concentrations (MICs) [3]: 2 μl/Ml | Minimum inhibitory concentrations (MICs) [4]: 8 μl/Ml | Minimum inhibitory concentrations (MICs) [5]: 8 μl/Ml | Minimum inhibitory concentrations (MICs) [6]: 0.25 μl/Ml | Minimum inhibitory concentrations (MICs) [7]: 8 μl/Ml | Minimum inhibitory concentrations (MICs) [8]: 1 μl/Ml | Minimum inhibitory concentrations (MICs) [9]: 8 μl/Ml | Minimum inhibitory concentrations (MICs) [10]: 4 μl/Ml | Minimum inhibitory concentrations (MICs) [11]: 2 μl/Ml | Minimum inhibitory concentrations (MICs) [12]: 8 μl/Ml | Minimum inhibitory concentrations (MICs) [13]: 4 μl/Ml | Minimum inhibitory concentrations (MICs) [14]: 8 μl/Ml | Minimum inhibitory concentrations (MICs) [15]: 2 μl/Ml | Minimum inhibitory concentrations (MICs) [16]: 2 μl/Ml | Minimum inhibitory concentrations (MICs) [17]: 8 μl/Ml
Structure (SMILES): CC(=O)NC[C@H]1CN(c2ccc(N3CCOCC3)c(F)c2)C(=O)O1 [LNZ, linezolid]

Minimum inhibitory concentrations (MICs) [1]: 0.5 μl/Ml | Minimum inhibitory concentrations (MICs) [2]: 0.12 μl/Ml | Minimum inhibitory concentrations (MICs) [3]: 0.12 μl/Ml | Minimum inhibitory concentrations (MICs) [4]: ≦0.06 μl/Ml | Minimum inhibitory concentrations (MICs) [5]: 0.5 μl/Ml | Minimum inhibitory concentrations (MICs) [6]: 0.25 μl/Ml | Minimum inhibitory concentrations (MICs) [7]: 0.25 μl/Ml | Minimum inhibitory concentrations (MICs) [8]: ≦0.06 μl/Ml | Minimum inhibitory concentrations (MICs) [9]: 0.25 μl/Ml | Minimum inhibitory concentrations (MICs) [10]: 0.5 μl/Ml | Minimum inhibitory concentrations (MICs) [11]: ≦0.06 μl/Ml | Minimum inhibitory concentrations (MICs) [12]: 0.5 μl/Ml | Minimum inhibitory concentrations (MICs) [13]: 0.5 μl/Ml | Minimum inhibitory concentrations (MICs) [14]: 0.5 μl/Ml | Minimum inhibitory concentrations (MICs) [15]: ≦0.06 μl/Ml | Minimum inhibitory concentrations (MICs) [16]: 0.25 μl/Ml | Minimum inhibitory concentrations (MICs) [17]: ≦0.06 μl/Ml
Structure (SMILES): CN(C)c1cc(NC(=O)CNC(C)(C)C)c(O)c2c1C[C@H]1C[C@H]3[C@H](N(C)C)C(O)=C(C(N)=O)C(=O)[C@@]3(O)C(O)=C1C2=O [TIG, tigecyclin]
